Measured values published in patent US7910065B2, “Reaction sensing in living cells” (The Charles Stark Draper Laboratory, Inc., priority 2005, dated 2011).

Assays:
[1] = system: yeast mutated to knock-out the ERG2 gene; test: Optical sodium and potassium ion sensor monitoring of yeast cells stimulated with a HERG inhibitor (HERG compatibility screen), ERG2 knock-out; conditions: FIG. 6
From the text: (§1) The sensors of the present invention are suited to many different types of assays, or for the detection of compounds. In one exemplary application, a model cell system is used to screen for HERG compatibility. HERG (human ether-a-go-go) channels are implicated in the abnormal heart rhythms associated with Long QT Syndrome. It is believed that many compounds can block these channels and cause prolongation of the beat cycle of the heart. This abnormal rhythm can cause arrhythmia and can even lead to death. Accordingly, it is important that all drugs, regardless of therapeutic target, be screened for HERG compatibility.
(§2) Much is known genetically about yeast, and gene knock-outs are commercially available, allowing for the screening of two types of yeast: the wild type (WT) containing the ERG2, and one mutated to knock-out the ERG2 gene.
(§3) This example utilizes two cell types and two types of sensors, providing four different data signals, and the approach can be extended to an arbitrary number of sensors and cell types. Similarly, tissue can be used instead of culture.

[2] = system: wild type (WT) yeast containing the ERG2; test: Optical sodium and potassium ion sensor monitoring of yeast cells stimulated with a HERG inhibitor (HERG compatibility screen), wild type; conditions: FIG. 6
From the text: as §1, §2, §3

## O=C(CCCN1CCC(O)(c2ccc(Cl)cc2)CC1)c1ccc(F)cc1 [Haloperidol]
[1]; potassium sensor
  response in potassium upon stimulation of the cells: no response
[1]; sodium sensor
  response in sodium upon stimulation of the cells: no response
[2]; potassium sensor
  change in potassium upon stimulation of the cells: a change is observed
[2]; sodium sensor
  change in sodium upon stimulation of the cells: a change is observed
